Data from patent US10519133B2, “Vinyl compounds as FGFR and VEGFR inhibitors” (MEDSHINE DISCOVERY INC., priority 2015, dated 2019).

These compounds were tested against T1, FGFR1 (Homo sapiens, UniProt P11362) (assay: Z′-LYTE Detection Kinase Assay, in vitro enzymatic activity). Settings: 0.6 nM FGFR1, 2 uM Tyr4 peptide, 10 uM ATP, 60 min 23° C.
T1 construct: purchased Invitrogen PV4105
T1 sequence (P11362 22-822): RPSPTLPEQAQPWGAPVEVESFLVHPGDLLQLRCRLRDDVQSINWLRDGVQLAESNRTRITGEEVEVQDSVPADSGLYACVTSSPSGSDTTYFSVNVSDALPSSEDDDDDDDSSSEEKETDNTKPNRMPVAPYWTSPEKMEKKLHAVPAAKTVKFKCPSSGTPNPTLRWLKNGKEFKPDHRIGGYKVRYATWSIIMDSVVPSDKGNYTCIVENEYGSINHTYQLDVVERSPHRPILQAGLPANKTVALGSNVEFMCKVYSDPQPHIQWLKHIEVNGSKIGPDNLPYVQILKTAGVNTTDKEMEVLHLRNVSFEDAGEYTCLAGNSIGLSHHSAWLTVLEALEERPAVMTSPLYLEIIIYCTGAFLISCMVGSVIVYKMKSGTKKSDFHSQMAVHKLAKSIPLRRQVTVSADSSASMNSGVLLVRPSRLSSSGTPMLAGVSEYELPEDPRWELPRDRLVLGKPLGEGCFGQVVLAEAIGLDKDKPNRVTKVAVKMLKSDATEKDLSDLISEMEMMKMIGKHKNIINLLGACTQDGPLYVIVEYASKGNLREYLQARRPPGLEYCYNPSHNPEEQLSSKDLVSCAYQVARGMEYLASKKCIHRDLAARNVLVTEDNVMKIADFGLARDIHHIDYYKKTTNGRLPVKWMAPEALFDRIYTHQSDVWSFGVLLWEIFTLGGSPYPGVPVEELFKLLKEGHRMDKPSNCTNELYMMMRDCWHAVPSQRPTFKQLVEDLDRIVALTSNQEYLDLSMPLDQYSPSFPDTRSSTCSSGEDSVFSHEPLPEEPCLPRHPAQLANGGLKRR
Assay type: biochemical
Experimental: To measure enzyme activity by Z′-LYTE™ Detection Kinase Assay, and to evaluate the inhibitory effect of the compounds on FGFR1 using IC50 value of the compounds as an indicator. […]
Reaction Buffer: 50 mM Hepes (pH 7.5), 10 mM MgCl2, 1 mM EGTA, 0.01% Brij-35, 1 mM DTT, 2 mM MnCl2 0.6 nM FGFR1, 2 uM Tyr4 peptide and 10 uM ATP in reaction buffer (50 mM Hepes, pH 7.5, 10 mM MgCl2, 0.01% BRIJ-35, 1 mM EGTA, 4 mM MnCl2, 2 mM DTT). a. Diluting the compounds with DMSO to 10 mM, 3-fold dilution, 11 gradients, duplicate wells. b. Diluting the compound by 1:25 into middle plate at Bravo Automatic Liquid Station, then transferring 2.5 ul to the reaction plate to ensure the final DMSO concentration to be 1%. c. Transferring 5 ul of enzyme/substrate buffer into each well d. Using Multidrop Liquid Workstation to sequentially add ATP solution to each well e. Centrifuging at 1000 rpm for 1 minute f. Placing the reaction plate in an incubator at 23° C. to react for 60 min. a. Preparing a 1:128 mixture of Development Regent B and Development Buffer b. Adding 5 ul to each well and centrifuging at 1000 rpm for 1 minute c. Placing the reaction plate in a thermostat (23° C.) after centrifuging for 90 minutes, removing and reading on Envision (Perkin Elmer) Plate Reader
D. Analyzing Data: Analyzing Data Using XLFIT (IDBS) and Calculating IC50 Values for the Compounds.
For CC(Oc1ccc2[nH]nc(/C=C/c3ccc(CN4CCC(Cc5ccccc5)CC4)cc3)c2c1)c1c(Cl)cncc1Cl (stereo not drawn) [Example 90], the IC50 was 50 to 1000 nM.
For C[C@H](Oc1ccc2[nH]nc(/C=C(\F)c3ccc(CN4CCC(O)C4)nc3)c2c1)c1c(Cl)cncc1Cl (stereo partly drawn) [Example 23], the IC50 was no more than 10 nM.
CC(Oc1ccc2[nH]nc(/C=C/c3ccc(CN4CCOC(CO)C4)cc3)c2c1)c1c(Cl)cncc1Cl (stereo not drawn) [Example 88] gave an IC50 of 10 to 50 nM.
With CC(Oc1ccc2[nH]nc(/C=C/c3ccc(CN4CCN(c5ccccc5)CC4)cc3)c2c1)c1c(Cl)cncc1Cl (stereo not drawn) [Example 83] the IC50 was 50 to 1000 nM.
For CC(Oc1ccc2[nH]nc(/C(F)=C/c3ccc(CN4CCC(CO)CC4)nc3)c2c1)c1c(Cl)cncc1Cl (stereo not drawn) [Example 9], the IC50 was 10 to 50 nM.
For C[C@@H](Oc1ccc2[nH]nc(/C=C(\F)c3ccc(CN4CCC(O)C4)nc3)c2c1)c1c(Cl)cncc1Cl (stereo partly drawn) [Example 31], the IC50 was no more than 10 nM.
C[C@@H](Oc1ccc2[nH]nc(/C=C/c3ccc(CN4CCC(CO)CC4)nc3)c2c1)c1c(Cl)cncc1Cl [Example 140] was tested, and the IC50 was 10 to 50 nM.
With CCN(Cc1ccc(/C=C/c2n[nH]c3ccc(OC(C)c4c(Cl)cncc4Cl)cc23)cc1)C1CCCCC1 (stereo not drawn) [Example 104] the IC50 was 50 to 1000 nM.
CC(Oc1ccc2[nH]nc(/C=C/c3ccc(CN(C)Cc4ccccc4)cc3)c2c1)c1c(Cl)cncc1Cl (stereo not drawn) [Example 94] gave an IC50 of 50 to 1000 nM.
CC(Oc1ccc2[nH]nc(/C(F)=C/c3ccc(CN4CCC(O)C4)nc3)c2c1)c1c(Cl)cncc1Cl (stereo not drawn) [Example 12] gave an IC50 of 10 to 50 nM.
Work on CC(Oc1ccc2[nH]nc(/C=C/c3ccc(CN4CCOCC4)cc3C#N)c2c1)c1c(Cl)cncc1Cl (stereo not drawn) [Example 60] yielded an IC50 of 50 to 1000 nM.
Work on C[C@@H](Oc1ccc2[nH]nc(/C=C(\F)c3ccc(CN[C@H]4C[C@H](O)C4)nc3)c2c1)c1c(Cl)cncc1Cl [Example 26] yielded an IC50 of 10 to 50 nM.
Work on CC(Oc1ccc2[nH]nc(/C=C/c3ccc(CN4CCOCC4)nn3)c2c1)c1c(Cl)cncc1Cl (stereo not drawn) [Example 66] yielded an IC50 of no more than 10 nM.
With CCN(Cc1ccccc1)Cc1ccc(/C=C/c2n[nH]c3ccc(OC(C)c4c(Cl)cncc4Cl)cc23)cc1 (stereo not drawn) [Example 91] the IC50 was 50 to 1000 nM.
C[C@H](Oc1ccc2[nH]nc(/C(F)=C\c3ccc(CN4CCOCC4)nc3)c2c1)c1c(Cl)cncc1Cl [Example 3] was tested, and the IC50 was 50 to 1000 nM.
With CC1CN(Cc2ccc(/C=C/c3n[nH]c4ccc(OC(C)c5c(Cl)cncc5Cl)cc34)cc2)CC(C)O1 (stereo not drawn) [Example 108] the IC50 was 50 to 1000 nM.
Work on CC1CN(Cc2ccc(/C=C/c3n[nH]c4ccc(OC(C)c5c(Cl)cncc5Cl)cc34)cc2)CCN1 (stereo not drawn) [Example 97] yielded an IC50 of no more than 10 nM.
CC(Oc1ccc2[nH]nc(/C=C/c3ccc(CN4CCC(O)CC4)cc3)c2c1)c1c(Cl)cncc1Cl (stereo not drawn) [Example 72] showed an IC50 of no more than 10 nM.
With C[C@@H](Oc1ccc2[nH]nc(/C=C/c3cccc(CN4CCC(CO)CC4)c3)c2c1)c1c(Cl)cncc1Cl [Example 135] the IC50 was no more than 10 nM.
Compound CC(Oc1ccc2[nH]nc(/C=C/c3ccc(CNCCN4CCOCC4)cc3)c2c1)c1c(Cl)cncc1Cl (stereo not drawn) [Example 89] has an IC50 of no more than 10 nM.
In the case of CC(Oc1ccc2[nH]nc(-c3ccc(C(=O)N4CCNCC4C)cc3)c2c1)c1c(Cl)cncc1Cl (stereo not drawn) [Example 126], the IC50 is reported as 50 to 1000 nM.
For C[C@H](Oc1ccc2[nH]nc(/C(O)=C/c3ccc(CN4CCOCC4)nc3)c2c1)c1c(Cl)cncc1Cl [Example 6], the IC50 was 50 to 1000 nM.
Work on CC(Oc1ccc2[nH]nc(/C=C/c3ncc(CN4CCOCC4)cn3)c2c1)c1c(Cl)cncc1Cl (stereo not drawn) [Example 52] yielded an IC50 of 50 to 1000 nM.
C[C@@H](Oc1ccc2[nH]nc(/C=C/c3ccc(CN4CCOCC4)nc3)c2c1)c1c(Cl)cncc1Cl [Example 137] gave an IC50 of no more than 10 nM.
With CC1CN(C(=O)c2ccc(-c3n[nH]c4ccc(OC(C)c5c(Cl)cncc5Cl)cc34)cc2)CCN1 (stereo not drawn) [Example 112] the IC50 was 50 to 1000 nM.
For CC(Oc1ccc2[nH]nc(/C=C/c3ccc(CN4CCc5ccccc5C4)cc3)c2c1)c1c(Cl)cncc1Cl (stereo not drawn) [Example 80], the IC50 was 50 to 1000 nM.
For C[C@@H](Oc1ccc2[nH]nc(/C(F)=C/c3ccc(CN4CCOCC4)nc3)c2c1)c1c(Cl)cncc1Cl [Example 4], the IC50 was 50 to 1000 nM.
Compound CC(Oc1ccc2[nH]nc(-c3ccc(C(=O)N4CCN(C(C)C)CC4)cc3)c2c1)c1c(Cl)cncc1Cl (stereo not drawn) [Example 117] has an IC50 of 50 to 1000 nM.
CC(Oc1ccc2[nH]nc(/C=C/c3ccc(CN4CCN(C)CC4)cc3)c2c1)c1c(Cl)cncc1Cl (stereo not drawn) [Example 93] was tested, and the IC50 was 10 to 50 nM.
CC(Oc1ccc2[nH]nc(/C=C(\F)c3ccc(CNC4CCOCC4)nc3)c2c1)c1cc(F)cc(F)c1 (stereo not drawn) [Example 144] was tested, and the IC50 was no more than 10 nM.
C[C@H](Oc1ccc2[nH]nc(/C=C(\F)c3ccc(CN4CCC(CO)CC4)nc3)c2c1)c1c(Cl)cncc1Cl [Example 22] gave an IC50 of 10 to 50 nM.
CCN1CCC(C(C)Oc2ccc3[nH]nc(/C=C/c4ccc(CN5CCOCC5)cc4)c3c2)CC1 (stereo not drawn) [Example 148] showed an IC50 of 50 to 1000 nM.
CCN(Cc1ccccc1)Cc1ccc(/C=C/c2n[nH]c3ccc(OC(C)c4c(Cl)cncc4Cl)cc23)cc1 (stereo not drawn) [Example 95] was tested, and the IC50 was 50 to 1000 nM.
CC(=O)N1CCN(Cc2ccc(/C=C/c3n[nH]c4ccc(OC(C)c5c(Cl)cncc5Cl)cc34)cc2)CC1 (stereo not drawn) [Example 109] gave an IC50 of no more than 10 nM.
CC(Oc1ccc2[nH]nc(/C(F)=C/c3ccc(CNCCN4CCOCC4)nc3)c2c1)c1c(Cl)cncc1Cl (stereo not drawn) [Example 11] showed an IC50 of 50 to 1000 nM.
Work on CC(Oc1ccc2[nH]nc(-c3ccc(C(=O)N4CCOCC4)cc3)c2c1)c1c(Cl)cncc1Cl (stereo not drawn) [Example 113] yielded an IC50 of 50 to 1000 nM.
Work on CC(Oc1ccc2[nH]nc(/C=C/c3ccc(CN4CCOCC4)c4ccccc34)c2c1)c1c(Cl)cncc1Cl (stereo not drawn) [Example 56] yielded an IC50 of 50 to 1000 nM.
Compound C[C@H](Oc1ccc2[nH]nc(/C(F)=C/c3ccc(CN4CCOCC4)nc3)c2c1)c1c(Cl)cncc1Cl [Example 5] has an IC50 of 50 to 1000 nM.
Work on CC(Oc1ccc2[nH]nc(/C=C(\F)c3ccc(CNC4CCOCC4)nc3)c2c1)c1c(F)cncc1F (stereo not drawn) [Example 146] yielded an IC50 of no more than 10 nM.
Work on CC(Oc1ccc2[nH]nc(/C=C/c3ccc(CN4CCCCC4)cc3)c2c1)c1c(Cl)cncc1Cl (stereo not drawn) [Example 81] yielded an IC50 of no more than 10 nM.
Compound CC(Oc1ccc2[nH]nc(/C=C/c3ccc(CN4CCN(C(C)C)CC4)cc3)c2c1)c1c(Cl)cncc1Cl (stereo not drawn) [Example 102] has an IC50 of no more than 10 nM.
C[C@@H](Oc1ccc2[nH]nc(/C=C/c3ccc(CN4CCC(O)C4)nn3)c2c1)c1c(Cl)cncc1Cl (stereo partly drawn) [Example 69] was tested, and the IC50 was no more than 10 nM.
CC(Oc1ccc2[nH]nc(/C=C/c3ccc(CN4CCOCC4)c(C(F)(F)F)c3)c2c1)c1c(Cl)cncc1Cl (stereo not drawn) [Example 64] gave an IC50 of 50 to 1000 nM.
With [2H]C([2H])(c1ccc(/C=C/c2n[nH]c3ccc(OC(C)c4c(Cl)cncc4Cl)cc23)nn1)N1CCOCC1 (stereo not drawn) [Example 65] the IC50 was no more than 10 nM.
For CC(Oc1ccc2[nH]nc(-c3ccc(C(=O)N4CCC(O)C4)cc3)c2c1)c1c(Cl)cncc1Cl (stereo not drawn) [Example 119], the IC50 was 50 to 1000 nM.
CC(Oc1ccc2[nH]nc(/C=C(\F)c3ccc(CNC4CCOCC4)nc3)c2c1)c1c(F)cccc1Cl (stereo not drawn) [Example 145] showed an IC50 of 50 to 1000 nM.
In the case of CCN(Cc1ccc(/C(F)=C/c2n[nH]c3ccc(O[C@H](C)c4c(Cl)cncc4Cl)cc23)cn1)C1CCOCC1 [Example 18b], the IC50 is reported as no more than 10 nM.
C[C@@H](Oc1ccc2[nH]nc(/C=C(\F)c3ccc(OC4CCOCC4)nc3)c2c1)c1c(Cl)cncc1Cl [Example 36] showed an IC50 of 50 to 1000 nM.
In the case of C[C@@H](Oc1ccc2[nH]nc(/C=C/c3cccc(CN4CCC(O)C4)c3)c2c1)c1c(Cl)cncc1Cl (stereo partly drawn) [Example 134], the IC50 is reported as no more than 10 nM.
For CC(Oc1ccc2[nH]nc(/C=C/c3ccc(CN4CCOCC4)cc3)c2c1)C1CCN(C)CC1 (stereo not drawn) [Example 149], the IC50 was 50 to 1000 nM.
With CC(Oc1ccc2[nH]nc(-c3ccc(C(=O)N4CCC(O)CC4)cc3)c2c1)c1c(Cl)cncc1Cl (stereo not drawn) [Example 114] the IC50 was 50 to 1000 nM.
For CC(Oc1ccc2[nH]nc(-c3ccc(C(=O)NCCN4CCOCC4)cc3)c2c1)c1c(Cl)cncc1Cl (stereo not drawn) [Example 125], the IC50 was 50 to 1000 nM.
Compound CC(Oc1ccc2[nH]nc(/C=C/c3ccc(CN4CCC(O)C4)cc3)c2c1)c1c(Cl)cncc1Cl (stereo not drawn) [Example 106] has an IC50 of no more than 10 nM.
CC(Oc1ccc2[nH]nc(/C=C/c3ccc(CNCc4ccccc4)cc3)c2c1)c1c(Cl)cncc1Cl (stereo not drawn) [Example 87] was tested, and the IC50 was 50 to 1000 nM.
With C[C@@H](Oc1ccc2[nH]nc(/C=C(\F)c3ccc(OC4CCNCC4)nc3)c2c1)c1c(Cl)cncc1Cl [Example 43] the IC50 was no more than 10 nM.
Compound CC(Oc1ccc2[nH]nc(/C=C/c3ccc(CN4CCCC(CO)C4)cc3)c2c1)c1c(Cl)cncc1Cl (stereo not drawn) [Example 101] has an IC50 of no more than 10 nM.
In the case of CC(Oc1ccc2[nH]nc(/C=C/c3ccc(CN4CCCOCC4)cc3)c2c1)c1c(Cl)cncc1Cl (stereo not drawn) [Example 100], the IC50 is reported as no more than 10 nM.
CC(Oc1ccc2[nH]nc(/C(F)=C/c3ccc(CNC4CCOCC4)nc3)c2c1)c1c(Cl)cncc1Cl (stereo not drawn) [Example 10] gave an IC50 of 10 to 50 nM.
With CC(Oc1ccc2[nH]nc(/C=C/c3ccc(CNc4ccccc4)cc3)c2c1)c1c(Cl)cncc1Cl (stereo not drawn) [Example 99] the IC50 was 50 to 1000 nM.
With C[C@@H](Oc1ccc2[nH]nc(/C=C(\F)c3ccc(O[C@H]4CCOC4)nc3)c2c1)c1c(Cl)cncc1Cl [Example 37] the IC50 was 50 to 1000 nM.
In the case of CC(=O)N(C)C1CCN(C(=O)c2ccc(-c3n[nH]c4ccc(OC(C)c5c(Cl)cncc5Cl)cc34)cc2)C1 (stereo not drawn) [Example 120], the IC50 is reported as 50 to 1000 nM.
With Cc1cc(/C=C/c2n[nH]c3ccc(OC(C)c4c(Cl)cncc4Cl)cc23)ccc1CN1CCOCC1 (stereo not drawn) [Example 58] the IC50 was 50 to 1000 nM.
For CC(Oc1ccc2[nH]nc(/C=C/c3cc(N)c(CN4CCOCC4)cc3F)c2c1)c1c(Cl)cncc1Cl (stereo not drawn) [Example 61], the IC50 was 50 to 1000 nM.
